Results taken from patent publication US8735152B2, “Methods for inducing cell death in pluripotent stem cells and differentiated cells other than cardiac myocytes” (Daiichi Sankyo Company, Limited, priority 2009, dated 2014).

Assays:
Assay type in all cases: cell-based
[1] = system: mouse embryonic stem cells; assay: Cell death inducing effect on mouse embryonic stem cells (TMRM, FACS); conditions: 0.45 M
From the text: The mitochondrial membrane potential is lost in dead cells, so if cells are stained with the mitochondrial membrane potential sensitive reagent TMRM (Molecular Probe) which emits fluorescence upon detecting the membrane potential which is an indicator of survival, the fluorescence signal derived from this reagent is high in live cells but low in dead cells. This feature was used in Example 3; embryonic stem cells cultured by the method of Example 1 were further cultured in an α-MEM culture medium containing 0.45 M mannitol (approximately equivalent to 720 mOsm/kg) and 1 μM TMRM for a period of 0 h (Pre), 3 h, 6 h or 20 h; the cultured embryonic stem cells were harvested, washed and subjected to FACS analysis for checking the state of their survival on the basis of the fluorescence intensity of the mitochondrial membrane potential sensitive reagent TMRM; the results are shown in FIG. 4. In FIG. 4 depicting the results of FACS analysis for 0 h (Pre), 3 h, 6 h, and 20 h, the cells lying above the border line on the dot plots diagrams are live cells and those below the border line are dead cells.

[2] = system: marmoset embryonic stem cells; assay: Cell death inducing effect on marmoset embryonic stem cells (TMRM FACS, 5-day adherent culture); conditions: 0.45 M, 2 hours
Protocol: The marmoset embryonic stem cells were obtained from the Central Institute for Experimental Animals (Stem Cells, 2005 October; 23(9): 1304-13). The cells were cultured basically in accordance with the method described in this document. To be more specific, the marmoset embryonic stem cells were cultured to maintain their undifferentiated state using mouse embryonic fibroblasts (MEF) that had been inactivated for growth by treatment with mitomycin C. The culture medium of KO-DMEM (GIBCO), supplemented with 20% KO-SERUM (GIBCO), 1.6 mM L-glutamine, 0.1 mM non-essential amino acids (MEM), 0.2 mM β-mercaptoethanol (2-ME; Sigma), 100 IU/ml penicillin, 100 μg/ml streptomycin sulfate, and 8 ng/ml recombinant human leukemia inhibiting factor (LIF; Chemicon) or recombinant human basic fibroblast growth factor (bFGF; Peprotech) was used. Upon passaging, the cells were treated with 0.1% type III collagenase (Wortington) at 37° C. for 10 minutes to separate ES colonies. […] Thereafter, the cells treated with mannitol for 2 hours and the control cells were analyzed by FACS for the level of mitochondrial membrane potential on the basis of the fluorescent intensity of TMRM to check the state of survival of the stem cells; the results are shown in FIG. 5. […]

embryonic stem cells = assay: Study of mannitol concentration and duration of exposure versus cell death of embryonic stem cells; conditions: 1M (substantially saturated concentration)
From the text: The present inventors prepared hypertonic solutions containing mannitol dissolved in it at high concentrations and applied those hypertonic solutions to a mixed cell system comprising embryonic stem cells as well as cardiomyocytes and non-cardiomyocytes; they found the fact that upon exposure to the hypertonic solutions, the embryonic stem cells and non-cardiomyocytes were more likely to undergo cell death.

[3] = system: mouse embryonic stem cells; assay: Cell death inducing effect of low-concentration mannitol on mouse embryonic stem cells (adhesion, morphology); conditions: 0.2 M
Protocol: Embryonic stem cells as cultured by the method described in Example 1 were cultured for an additional 48 or 72 hours in an α-MEM culture medium containing 0.2 M mannitol (approximately equivalent to 480 mOsm/kg); thereafter, the stem cells were checked for the state of their survival in terms of cell adhesion or non-adhesion and by morphological observation; the results are shown in FIG. 15.

OC[C@@H](O)[C@@H](O)[C@H](O)[C@H](O)CO [mannitol]
Cells that had died ([1]; 3-hr treatment): approximately 90% | Cells that had died ([1]; 6-hr treatment): 98% | Cells that had died ([1]; 20-hr treatment): all cells had been dead | Mitochondrial membrane potential (TMRM fluorescence, FACS) [2]: almost all of the cells treated with mannitol for 2 hours had lost membrane potential | Survival after adherent culture for 5 days ([2]; then 5 days adherent culture): none of the cells exposed to mannitol were found alive | Cell death in embryonic stem cells (embryonic stem cells): induced cell death in embryonic stem cells within a short period of time | State of survival (cell adhesion, morphology) ([3]; 48 hours): almost all colonies had already detached from the culture dish | State of survival (cell adhesion, morphology) ([3]; 72 hours): the cells were completely dead
